# Laboratory results from publication PMC3949517 (Acta Crystallographica Section D: Biological Crystallography, 2014).
# Several values for one entry are separate records, joined by “and”; a condition that tells them apart may be missing. Identical values can stand only once. Bridge positions count the residues as written; N and C are the ends. Ends that are not written are not given here. Peptide text beside a SMILES is read from it. * marks the point of attachment. Biotin = O=C1N[C@H]2[C@H](CS[C@H]2CCCCC(=O)*)N1
# T1: pep50L, linear (reduced) synthetic peptide 50 (synthetic (phage library-derived), cysteine pairing not given here)
# T1 construct: also called pep50 linear form; source: synthetic peptide
# T1 chain: GACRNPWGLTCGAAGAEK(Biotin)-NH2
# T2: pep54L, linear (reduced) synthetic peptide 54 (synthetic (phage library-derived), cysteine pairing not given here)
# T2 construct: also called pep54 linear form; source: synthetic peptide
# T2 chain: GACPNPWGLLCGAAGAEK(Biotin)-NH2
# B1: FabA17λ (Fab of the A17 reactibody with the λ light-chain constant domain) (Fab, V domains shown)
# VH: QVQLQESGPGLVKPSETLSLTCAVSGYSISSGYYWGWIRQPPGKGLEWIGSIYHSGSTYYNPSLKSRVTISVDTSKNQFSLKLSSVTAADTAVYYCAGLTQSSHNDANWGQGTLVTVSS
# VL: QSVLTQPPSVSAAPGQKVTISCSGSSSNIGNNYVSWYQQLPGTAPKLLIYDNNKRPSGIPDRFSGSKSGTSATLGITGLQTGDEADYYCGTWDSSLNPVFGGGTKLTVL
# notes: as the heavy chain of m1 (HCH: A17 VH, human CH1, hinge region); natural-type λ light chain: A17 VL (identical to the VL of m1) with the J2 segment and the constant region of human λ2 light chain; also called FabA17 λ variant; source: Pichia pastoris GS115, culture medium, purified (Talon, Mono Q, Superdex 75)
# How the values were obtained:
# [1] = system: A17κ reactibody; type: binding, human
# [2] = system: A17λ reactibody; type: binding, human; conditions: for Kd: read-out: Kd (BiaCore affinity constant)
# [3] = system: A17κ reactibody (FabA17κ); type: biochemical, human
# [4] = system: A17λ reactibody (FabA17λ); type: biochemical, human
# [5] = system: A17 reactibody; conditions: cited from earlier work
# [6] = system: scFvA17; type: binding, human
# [7] = system: recombinant Fab reactibodies (FabA17κ, FabA17λ); type: binding, human
# [8] = system: A17κ reactibody (FabA17κ); type: biochemical, human; remark: listed apart in the source
# [9] = system: A17λ reactibody (FabA17λ); type: biochemical, human; remark: listed apart in the source
# [10] = system: A17κ reactibody (FabA17κ); type: biochemical, human; remark: listed apart in the source
# [11] = target: T1, pep50L, linear (reduced) synthetic …; experiment: SPR; Biacore T200, SA sensor chip; biotinylated synthetic peptides immobilised, antibodies injected at a range of concentrations, 10 µl/min, 298 K; association and dissociation 300 s each; 1:1 binding model, affinity-analysis option; conditions: both partners purified
# [12] = target: T2, pep54L, linear (reduced) synthetic …; experiment: as above; conditions: both partners purified
molecule,measurement,setting,value
CC(C)C[C@@H]1NC(=O)CNC(=O)[C@H](Cc2c[nH]c3ccccc23)NC(=O)[C@@H]2CCCN2C(=O)[C@H](CC(N)=O)NC(=O)[C@H](CCCNC(=N)N)NC(=O)[C@@H](NC(=O)[C@H](C)NC(=O)CN)CSSC[C@@H](C(=O)NCC(=O)N[C@@H](C)C(=O)N[C@@H](C)C(=O)NCC(=O)N[C@@H](C)C(=O)N[C@@H](CCC(=O)O)C(=O)N[C@@H](CCCCNC(=O)CCCC[C@@H]2SC[C@@H]3NC(=O)N[C@@H]32)C(N)=O)NC(=O)[C@H]([C@@H](C)O)NC1=O [50C] (H-GACRNPWGLTCGAAGAEK(Biotin)-NH2; disulfide 3-11),affinity (in words),[1],high affinity
same,binding activity of A17κ compared with A17λ (in words),[1],A17κ was more active in binding either the linear or the cyclic form of pep50
same,Kd,[1]; read-out: Kd (BiaCore affinity constant),0.9 µM
same,affinity (in words),[2],high affinity
CC(C)C[C@H](NC(=O)CNC(=O)[C@H](Cc1c[nH]c2ccccc12)NC(=O)[C@@H]1CCCN1C(=O)[C@H](CC(N)=O)NC(=O)[C@H](CCCNC(=N)N)NC(=O)[C@H](CS)NC(=O)[C@H](C)NC(=O)CN)C(=O)N[C@H](C(=O)N[C@@H](CS)C(=O)NCC(=O)N[C@@H](C)C(=O)N[C@@H](C)C(=O)NCC(=O)N[C@@H](C)C(=O)N[C@@H](CCC(=O)O)C(=O)N[C@@H](CCCCNC(=O)CCCC[C@@H]1SC[C@@H]2NC(=O)N[C@@H]21)C(N)=O)[C@@H](C)O [50L] (H-GACRNPWGLTCGAAGAEK(Biotin)-NH2),affinity (in words),[1],high affinity
same,binding activity of A17κ compared with A17λ (in words),[1],A17κ was more active in binding either the linear or the cyclic form of pep50
same,affinity (in words),[2],high affinity
same,Kd,[2],2.3 µM
CC(C)C[C@@H]1NC(=O)CNC(=O)[C@H](Cc2c[nH]c3ccccc23)NC(=O)[C@@H]2CCCN2C(=O)[C@H](CC(N)=O)NC(=O)[C@@H]2CCCN2C(=O)[C@@H](NC(=O)[C@H](C)NC(=O)CN)CSSC[C@@H](C(=O)NCC(=O)N[C@@H](C)C(=O)N[C@@H](C)C(=O)NCC(=O)N[C@@H](C)C(=O)N[C@@H](CCC(=O)O)C(=O)N[C@@H](CCCCNC(=O)CCCC[C@@H]2SC[C@@H]3NC(=O)N[C@@H]32)C(N)=O)NC(=O)[C@H](CC(C)C)NC1=O [54C] (H-GACPNPWGLLCGAAGAEK(Biotin)-NH2; disulfide 3-11),binding activity of A17λ compared with A17κ (in words),[2],A17λ was more active than A17κ
CC(C)C[C@H](NC(=O)CNC(=O)[C@H](Cc1c[nH]c2ccccc12)NC(=O)[C@@H]1CCCN1C(=O)[C@H](CC(N)=O)NC(=O)[C@@H]1CCCN1C(=O)[C@H](CS)NC(=O)[C@H](C)NC(=O)CN)C(=O)N[C@@H](CC(C)C)C(=O)N[C@@H](CS)C(=O)NCC(=O)N[C@@H](C)C(=O)N[C@@H](C)C(=O)NCC(=O)N[C@@H](C)C(=O)N[C@@H](CCC(=O)O)C(=O)N[C@@H](CCCCNC(=O)CCCC[C@@H]1SC[C@@H]2NC(=O)N[C@@H]21)C(N)=O [54L] (H-GACPNPWGLLCGAAGAEK(Biotin)-NH2),Kd,[2],18 µM
"CCOP(=O)(OCC)Oc1ccc([N+](=O)[O-])cc1 [paraoxon, O,O-Diethyl O-(4-nitrophenyl)phosphate]","k2/KD, paraoxon",[3],1.15 ± 0.52 M–1 min–1
same,"k2/Kd, paraoxon",[3]; pH 7.4,1.2 0.5 M ^1min^1
same,"k2/KD, paraoxon",[4],1.63 ± 0.65 M–1 min–1
same,"k2/Kd, paraoxon",[4]; pH 7.4,1.6 0.6 M ^1min^1
same,reaction with A17 reactibody (in words),[5],hydrolyzing
CPNPWGLLC (disulfide 1-9 (inferred)) [pep54],binding to scFvA17 (in words),[6],specifically bind
same,effect of phosphonylation of scFv on ELISA signals (in words),[6],significantly enhanced the ELISA signals
same,binding by recombinant Fab reactibodies (in words),[7],capable of binding
same,effect of phosphonylation of the Fabs on level of binding (in words),[7],reduced the level of binding
CRNPWGLTC (disulfide 1-9 (inferred)) [pep50],binding to scFvA17 (in words),[6],specifically bind
same,effect of phosphonylation of scFv on ELISA signals (in words),[6],significantly enhanced the ELISA signals
same,binding by recombinant Fab reactibodies (in words),[7],capable of binding
same,effect of phosphonylation of the Fabs on level of binding (in words),[7],reduced the level of binding
p-nitrophenyl 8-methyl-8-azabicyclo[3.2.1]octylphenylphosphonate [phosphonate X],"Ea (activation-energy parameter), phosphonate X",[8],12.5 1.3 kcalmol^1
same,Kd,[8]; pH 7.4,120 µM and 150 µM and 80 µM and 130 µM
same,"k2, phosphonate X",[8]; pH 7.4,0.24 0.03 min^1
same,"Ea (activation-energy parameter), phosphonate X",[9],11.4 0.5 kcalmol^1
same,Kd,[9]; pH 7.4,110 µM and 145 µM and 170 µM and 130 µM and 180 µM
same,"k2, phosphonate X",[9]; pH 7.4,0.28 0.02 min^1
same,"rate of induced-fit stage, A17κ vs A17λ (in words)",[10],induced-fit stage is more rapid in the κ variant
same,reaction with A17 reactibody (in words),[5],irreversibly binding
B1,Kd,[11],2.3 µM
same,Kd,[12],18 µM
